Patent US20260308186A1, “STAT DEGRADERS AND USES THEREOF” (Recludix Pharma, Inc., priority 2023, published 2026)
Read-outs that look alike come from different tables or passages of the source.

Target: T1, pSTAT6 (Homo sapiens, UniProt P42226)
T1 construct: pY641-STAT6 MSD read-out
T1 sequence (P42226 1-847): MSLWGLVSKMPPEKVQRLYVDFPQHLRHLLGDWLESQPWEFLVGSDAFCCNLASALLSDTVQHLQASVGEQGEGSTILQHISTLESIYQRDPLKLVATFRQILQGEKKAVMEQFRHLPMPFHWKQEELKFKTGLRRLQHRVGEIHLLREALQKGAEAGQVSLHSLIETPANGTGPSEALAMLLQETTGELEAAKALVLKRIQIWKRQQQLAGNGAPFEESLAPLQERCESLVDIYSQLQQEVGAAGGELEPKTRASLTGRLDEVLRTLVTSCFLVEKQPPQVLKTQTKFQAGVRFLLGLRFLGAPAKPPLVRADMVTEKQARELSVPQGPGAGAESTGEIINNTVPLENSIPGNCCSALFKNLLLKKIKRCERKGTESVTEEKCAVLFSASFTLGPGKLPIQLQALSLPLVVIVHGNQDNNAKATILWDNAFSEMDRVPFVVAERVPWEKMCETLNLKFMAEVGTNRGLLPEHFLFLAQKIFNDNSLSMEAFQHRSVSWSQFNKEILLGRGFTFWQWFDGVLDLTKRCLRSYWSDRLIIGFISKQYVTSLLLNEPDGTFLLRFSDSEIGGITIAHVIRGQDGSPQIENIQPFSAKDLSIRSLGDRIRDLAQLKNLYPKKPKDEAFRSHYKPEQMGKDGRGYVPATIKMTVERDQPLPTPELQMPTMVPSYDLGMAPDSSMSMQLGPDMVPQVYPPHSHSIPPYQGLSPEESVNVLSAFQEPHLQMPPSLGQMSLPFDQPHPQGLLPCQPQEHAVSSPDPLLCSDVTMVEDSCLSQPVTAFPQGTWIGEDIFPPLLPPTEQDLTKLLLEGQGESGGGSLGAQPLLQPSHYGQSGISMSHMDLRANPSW
Experiment: MSD-pSTAT-PBMC Assay, pSTAT6 (IL-4 stimulated PBMC)
Assay type: cell-based
Excerpt: Cryopreserved Peripheral Blood Mononuclear Cells (PBMC) are from AllCells. Recombinant Human IL-4 and IL-6 are from Peprotech. Mouse monoclonal anti-STAT3 antibody, rabbit monoclonal anti-pY705-STAT3 antibody, rabbit monoclonal Anti-pY641-STAT6 antibody, and lysis buffer are from Cell Signaling Technology (CST). Mouse monoclonal anti-STAT6 antibody is from BioLegend. Assay plates, blocker, and anti-rabbit secondary antibody are from Meso Scale Discovery (MSD).
Cryopreserved PBMCs were thawed out and allowed to recover overnight in IMDM+10% heat-inactivated FBS prior to plating 50,000 (STAT3) or 25,000 (STAT6) cells per well in 96-well U-bottom tissue culture plates. Cells were treated with compound for 3 hrs. then stimulated with 10 ng/mL IL-6 (STAT3) or 1 ng/mL IL-4 (STAT6) for 10 min. Cells were then spun down and washed with ice-cold PBS prior to lysing the cell pellet with 1× lysis buffer (CST) with 1×HALT protease and phosphatase inhibitor cocktail (Thermo). Lysates were transferred to and incubated overnight at 4° C. with shaking in QuickPlex 96-well high bind assay plates (MSD) pre-coated overnight with 30 μL per well of 0.6 μg/mL mouse monoclonal anti-STAT3 antibody (STAT3) or 2 μg/mL mouse monoclonal anti-STAT6 antibody (STAT6) in 1×PBS, and pre-blocked for 1 hour with 3% Blocker-A (MSD). Captured protein in the assay plates were then washed and probed with 25 μL per well of 0.25 μg/ml rabbit monoclonal anti-pY705-STAT3 antibody (STAT3) or 0.18 μg/ml rabbit monoclonal Anti-pY641-STAT6 antibody (STAT6) in 1% Blocker-A for 1 hour at room temperature with shaking, then washed and probed with 25 ul per well of 1 ug/ml Sulfo-TAG Labeled Goat Anti-Rabbit Antibody (MSD) in 1% Blocker-A for 1 hour at room temperature with shaking. Assay plates were then washed and 150 μL of 1× Read Buffer-T (MSD) was added to each well prior to reading on an SQ120 MSD Plate Reader. Assay signal from each sample was subtracted by the signal from unstimulated control wells and normalized to DMSO control wells. IC50 values were calculated using Graph Pad Prism Dose-Response Nonlinear Regression with variable slope. For both pSTAT3 and pSTAT6 A=≤100 nM; B=>100-1000 nM; C=>1000-3000 nM; and D=>3 μM.

[1] = compound 3 hrs, then 1 ng/mL IL-4 for 10 min, pY641-STAT6, read-out: pSTAT6 IC50
[2] = read-out: pSTAT6 IC50, compound 3 hrs, then 1 ng/mL IL-4 for 10 min, pY641-STAT6

SMILES | IC50 [1] [µM] | IC50 [2] [µM]
Cc1ccc2onc(C(=O)N3CC[C@H]4CC[C@@H](C(=O)N(C)CCCCCCC#Cc5cccc6c5CN(C5CCC(=O)NC5=O)C6=O)N4C(=O)[C@@H](NC(=O)c4ccc5ccc(C(F)(F)P(=O)(O)OCCSC(=O)C(C)(C)C)cc5c4)C3)c2c1 (stereo partly drawn) [Compound 17, S-(2-((((7-(((5S,8S,10aR)-8-((8-(2-(2,6-dioxopiperidin-3-yl)-1-oxoisoindolin-4-yl)oct-7-yn-1-yl)(methyl)carbamoyl)-3-(5-methylbenzo[d]isoxazole-3-carbonyl)-6-oxodecahydropyrrolo[1,2-a][1,5]diazocin-5-yl)carbamoyl)naphthalen-2-yl)difluoromethyl)(hydroxy)phosphoryl)oxy)ethyl) 2,2-dimethylpropanethioate] | > 3 | 
Cc1ccc2onc(C(=O)N3CC[C@H]4CC[C@@H](C(=O)N(C)CCCCCCC#Cc5cccc6c5CN(C5CCC(=O)NC5=O)C6=O)N4C(=O)[C@@H](NC(=O)c4ccc5ccc(C(F)(F)P(=O)(OCOC(=O)OC(C)C)OCOC(=O)OC(C)C)cc5c4)C3)c2c1 (stereo partly drawn) [Compound 19, ((((7-(((5S,8S,10aR)-8-((8-(2-(2,6-dioxopiperidin-3-yl)-1-oxoisoindolin-4-yl)oct-7-yn-1-yl)(methyl)carbamoyl)-3-(5-methylbenzo[d]isoxazole-3-carbonyl)-6-oxodecahydropyrrolo[1,2-a][1,5]diazocin-5-yl)carbamoyl)naphthalen-2-yl)difluoromethyl)phosphoryl)bis(oxy))bis(methylene) diisopropyl bis(carbonate)] | < 0.1 | 
CCCOC(=O)[C@H](C)NP(=O)(Cc1ccc2ccc(C(=O)N[C@H]3CN(C(=O)c4n[nH]c5ccc(C)cc45)CC[C@H]4CC[C@@H](C(=O)N(C)CCCCCCC#Cc5cccc6c5CN(C5CCC(=O)NC5=O)C6=O)N4C3=O)cc2c1)Oc1ccccc1 (stereo partly drawn) [Compound 16, propyl (((7-(((5S,8S,10aR)-8-((8-(2-(2,6-dioxopiperidin-3-yl)-1-oxoisoindolin-4-yl)oct-7-yn-1-yl)(methyl)carbamoyl)-3-(5-methyl-1H-indazole-3-carbonyl)-6-oxodecahydropyrrolo[1,2-a][1,5]diazocin-5-yl)carbamoyl)naphthalen-2-yl)methyl)(phenoxy)phosphoryl)-L-alaninate] |  | > 3
Cc1ccc2onc(C(=O)N3CC[C@H]4CC[C@@H](C(=O)N(C)CCCCCCC#Cc5cccc6c5CN(C5CCC(=O)NC5=O)C6=O)N4C(=O)[C@@H](NC(=O)c4ccc5ccc(C(F)(F)P(=O)(O)OCOC(=O)OC(C)C)cc5c4)C3)c2c1 (stereo partly drawn) [Compound 20, ((((7-(((5S,8S,10aR)-8-((8-(2-(2,6-dioxopiperidin-3-yl)-1-oxoisoindolin-4-yl)oct-7-yn-1-yl)(methyl)carbamoyl)-3-(5-methylbenzo[d]isoxazole-3-carbonyl)-6-oxodecahydropyrrolo[1,2-a][1,5]diazocin-5-yl)carbamoyl)naphthalen-2-yl)difluoromethyl)(hydroxy)phosphoryl)oxy)methyl isopropyl carbonate] | 1 to 3 | 
CCCOC(=O)[C@H](C)NP(=O)(Oc1ccccc1)C(F)c1ccc2ccc(C(=O)N[C@H]3CN(C(=O)c4noc5ccc(C)cc45)CC[C@H]4CC[C@@H](C(=O)N(C)CCCCCCC#Cc5cccc6c5CN(C5CCC(=O)NC5=O)C6=O)N4C3=O)cc2c1 (stereo partly drawn) [Compound 26, propyl (((7-(((5S,8S,10aR)-8-((8-(2-(2,6-dioxopiperidin-3-yl)-1-oxoisoindolin-4-yl)oct-7-yn-1-yl)(methyl)carbamoyl)-3-(5-methylbenzo[d]isoxazole-3-carbonyl)-6-oxodecahydropyrrolo[1,2-a][1,5]diazocin-5-yl)carbamoyl)naphthalen-2-yl)fluoromethyl)(phenoxy)phosphoryl)-L-alaninate] |  | > 3
